Assay results taken from ChEMBL document CHEMBL1201862, “PubChem BioAssay data set” (2004).
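Tested at 5 concentrations; 48 h exposure; 96-well plates; endpoints linearly interpolated, else capped at highest concentration. Here, GI50 denotes the concentration required for 50% inhibition of growth.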 Active and inactive are the calls of the source. Cut-off read from the data, not from the text of the source: active = GI50 up to about 1.1 µM and inactive = higher.

How the values were obtained:
Experiment in all cases: NCI tumour cell line growth inhibition, 48 h
A498 = system: A498
A549 = system: A549
CAKI-1 = system: CAKI-1
EKVX = system: EKVX
HCT-15 = system: HCT-15
HL-60 = system: HL-60
HOP-92 = system: HOP-92
Malme-3M = system: Malme-3M
NCI-H522 = system: NCI-H522
OVCAR-4 = system: OVCAR-4
OVCAR-5 = system: OVCAR-5
RPMI-8226 = system: RPMI-8226
RXF 393 = system: RXF 393
SF-539 = system: SF-539
SK-MEL-2 = system: SK-MEL-2
SK-MEL-5 = system: SK-MEL-5
SNB-75 = system: SNB-75
DU-145 = system: DU-145
MDA-MB-435 = system: MDA-MB-435
NCI/ADR-RES = system: NCI/ADR-RES

| SMILES | GI50 (A498) | GI50 (A549) | GI50 (CAKI-1) | GI50 (EKVX) | GI50 (HCT-15) [µM] | GI50 (HL-60) | GI50 (HOP-92) | GI50 (Malme-3M) | GI50 (NCI-H522) | GI50 (OVCAR-4) | GI50 (OVCAR-5) | GI50 (RPMI-8226) | GI50 (RXF 393) | GI50 (SF-539) | GI50 (SK-MEL-2) | GI50 (SK-MEL-5) | GI50 (SNB-75) | GI50 (DU-145) | GI50 (MDA-MB-435) | GI50 (NCI/ADR-RES) |
| --- | --- | --- | --- | --- | --- | --- | --- | --- | --- | --- | --- | --- | --- | --- | --- | --- | --- | --- | --- | --- |
| COc1ccc(/C(=N\NC(=S)NN)C(c2ccc(OC)cc2)C2C(=O)Oc3ccccc32)cc1 (configuration not stated) | > 10 µM (inactive) | > 10 µM (inactive) | > 10 µM (inactive) | > 10 µM (inactive) | > 10 | > 10 µM (inactive) | > 10 µM (inactive) | > 10 µM (inactive) | 65.5 µM (inactive) | > 10 µM (inactive) | > 10 µM (inactive) | > 10 µM (inactive) | > 10 µM (inactive) | > 10 µM (inactive) | > 10 µM (inactive) | > 10 µM (inactive) | > 10 µM (inactive) | – | – | – |
| O=C(Nn1c(-c2ccccc2)nc2ccccc2c1=O)c1ccc(CS)cc1 | 24.5 µM (inactive) | 36.7 µM (inactive) | – | 36.7 µM (inactive) | – | 16 µM (inactive) | 34.9 µM (inactive) | 36.6 µM (inactive) | 52.2 µM (inactive) | 98.4 µM (inactive) | > 100 µM (inactive) | 33.2 µM (inactive) | 44.7 µM (inactive) | 24.5 µM (inactive) | – | 11.8 µM (inactive) | 39.7 µM (inactive) | 39.4 µM (inactive) | 41.8 µM (inactive) | – |
| C#CC(C)(C)OCCCCOc1cc(O)c2c(=O)c3ccccc3n(C)c2c1 | 91 µM (inactive) | > 100 µM (inactive) | > 100 µM (inactive) | > 100 µM (inactive) | > 100 | > 100 µM (inactive) | > 100 µM (inactive) | > 100 µM (inactive) | > 100 µM (inactive) | > 100 µM (inactive) | > 100 µM (inactive) | > 100 µM (inactive) | > 100 µM (inactive) | > 100 µM (inactive) | > 100 µM (inactive) | 66.5 µM (inactive) | 84.5 µM (inactive) | – | – | – |
| CNC(=O)/C(C#N)=C(\N)N1CCCC1 | > 100 µM (inactive) | > 100 µM (inactive) | > 100 µM (inactive) | > 100 µM (inactive) | > 100 | > 100 µM (inactive) | – | > 100 µM (inactive) | > 100 µM (inactive) | – | > 100 µM (inactive) | > 100 µM (inactive) | > 100 µM (inactive) | > 100 µM (inactive) | > 100 µM (inactive) | > 100 µM (inactive) | – | > 100 µM (inactive) | > 100 µM (inactive) | > 100 µM (inactive) |
| C=C1CC(COc2ccc3c(C)c(C)c(=O)oc3c2C)(c2ccccc2)OC1=O (configuration not stated) | 2.7 µM (inactive) | 11.7 µM (inactive) | 1.5 µM (inactive) | 7.55 µM (inactive) | 1.88 | 0.711 µM (active) | 1.45 µM (inactive) | 1.62 µM (inactive) | 1.64 µM (inactive) | 2.32 µM (inactive) | 9.02 µM (inactive) | 0.486 µM (active) | – | 2.02 µM (inactive) | 2.02 µM (inactive) | 1.59 µM (inactive) | 2.67 µM (inactive) | 2.07 µM (inactive) | 2.7 µM (inactive) | 2.7 µM (inactive) |
| Cc1cc(C)nc(/C(=N\NC(N)=O)C(=O)Nc2nc3ccc(C)cc3s2)c1 | > 100 µM (inactive) | > 100 µM (inactive) | > 100 µM (inactive) | > 100 µM (inactive) | > 70 | > 100 µM (inactive) | > 100 µM (inactive) | > 100 µM (inactive) | > 93.1 µM (inactive) | > 100 µM (inactive) | > 100 µM (inactive) | > 48.2 µM (inactive) | > 100 µM (inactive) | > 100 µM (inactive) | > 100 µM (inactive) | > 100 µM (inactive) | > 100 µM (inactive) | – | – | – |
| COC1(OC)CCC2C1C1CCC(OC)(OC)C21 (configuration not stated) | > 50 µM (inactive) | > 50 µM (inactive) | > 50 µM (inactive) | > 50 µM (inactive) | > 50 | > 50 µM (inactive) | > 50 µM (inactive) | > 50 µM (inactive) | > 50 µM (inactive) | > 50 µM (inactive) | > 50 µM (inactive) | > 50 µM (inactive) | > 50 µM (inactive) | > 50 µM (inactive) | > 50 µM (inactive) | > 50 µM (inactive) | > 50 µM (inactive) | – | – | – |
| C/C(=N\O)c1ccc(Nc2nc3ccccc3c3occc23)cc1 | 8.41 µM (inactive) | 3.87 µM (inactive) | 3.15 µM (inactive) | 21.7 µM (inactive) | 2.55 | 2.29 µM (inactive) | 6.78 µM (inactive) | 19.9 µM (inactive) | 3.34 µM (inactive) | – | 8.3 µM (inactive) | 2.58 µM (inactive) | – | 6.68 µM (inactive) | 12.6 µM (inactive) | 8.51 µM (inactive) | – | 9.57 µM (inactive) | 6.58 µM (inactive) | 6.76 µM (inactive) |
| COC1=CC(=O)C2C(C1=O)[C@@H]1c3ccccc3C[C@H]21 (some centres not stated) | > 100 µM (inactive) | > 100 µM (inactive) | > 100 µM (inactive) | > 100 µM (inactive) | > 100 | > 100 µM (inactive) | > 100 µM (inactive) | > 100 µM (inactive) | > 100 µM (inactive) | > 100 µM (inactive) | > 100 µM (inactive) | > 100 µM (inactive) | > 100 µM (inactive) | > 100 µM (inactive) | > 100 µM (inactive) | > 100 µM (inactive) | 89.9 µM (inactive) | – | – | – |
| COc1cc2c(c(O)c1OC)CC1CCC(=O)N1C2c1cccc2ccccc12 (configuration not stated) | 18.5 µM (inactive) | 31.6 µM (inactive) | 19.5 µM (inactive) | 22.3 µM (inactive) | 24.4 | 0.813 µM (active) | 14.1 µM (inactive) | 21.8 µM (inactive) | 20.3 µM (inactive) | > 10 µM (inactive) | 19.1 µM (inactive) | 19.3 µM (inactive) | – | 16.1 µM (inactive) | 17.5 µM (inactive) | 13.4 µM (inactive) | 39 µM (inactive) | 18.5 µM (inactive) | 19.2 µM (inactive) | 19.4 µM (inactive) |
| Nc1nc(CCC(=O)Nc2cccc(C(F)(F)F)c2)cc(-c2ccc3ccccc3c2)n1 | > 100 µM (inactive) | > 100 µM (inactive) | > 100 µM (inactive) | > 100 µM (inactive) | > 100 | > 100 µM (inactive) | > 100 µM (inactive) | > 100 µM (inactive) | > 100 µM (inactive) | > 100 µM (inactive) | > 100 µM (inactive) | > 100 µM (inactive) | > 100 µM (inactive) | > 100 µM (inactive) | > 100 µM (inactive) | > 100 µM (inactive) | > 100 µM (inactive) | – | – | – |
| CCOC(=O)c1sc2nc1CSc1sc(=S)sc1SCc1nc(sc1C(=O)OCC)-c1nc(c(C(=O)OCC)s1)CSc1sc(=S)sc1SCc1nc-2sc1C(=O)OCC | – | > 10 µM (inactive) | > 10 µM (inactive) | > 10 µM (inactive) | > 10 | > 10 µM (inactive) | > 10 µM (inactive) | > 10 µM (inactive) | > 10 µM (inactive) | > 10 µM (inactive) | > 10 µM (inactive) | > 10 µM (inactive) | > 10 µM (inactive) | > 10 µM (inactive) | > 10 µM (inactive) | > 10 µM (inactive) | > 10 µM (inactive) | – | > 10 µM (inactive) | > 10 µM (inactive) |
| Cc1ccc(N2C(=O)C(O)=C(C(=O)C(C)(C)C)C2c2ccc([N+](=O)[O-])cc2)cc1 (configuration not stated) | 29.3 µM (inactive) | 23.6 µM (inactive) | 3.94 µM (inactive) | 26.9 µM (inactive) | 16.2 | 12.3 µM (inactive) | 13.7 µM (inactive) | 19 µM (inactive) | – | 6.71 µM (inactive) | 49.2 µM (inactive) | 10.9 µM (inactive) | – | 24.9 µM (inactive) | 24 µM (inactive) | 15.8 µM (inactive) | – | 28.4 µM (inactive) | 17.4 µM (inactive) | 19.5 µM (inactive) |
| CC(=O)c1c2c(cc3c1CC1(Cc4cc5c(cc4C1)C(=O)CCC5)C3)CCCC2 (configuration not stated) | 0.822 µM (active) | > 21.5 µM (inactive) | 7.73 µM (inactive) | > 23.8 µM (inactive) | 3.94 | 1.82 µM (inactive) | 2.55 µM (inactive) | 6.64 µM (inactive) | 4.31 µM (inactive) | 5.83 µM (inactive) | 35.2 µM (inactive) | 3.48 µM (inactive) | – | 4.17 µM (inactive) | 2.88 µM (inactive) | 2.21 µM (inactive) | 2.92 µM (inactive) | 20.9 µM (inactive) | 2.94 µM (inactive) | 5 µM (inactive) |
| COc1ccc(S(=O)(=O)O)cc1NS(=O)(=O)c1ccc(C)cc1 | > 100 µM (inactive) | > 100 µM (inactive) | > 100 µM (inactive) | > 100 µM (inactive) | > 100 | > 100 µM (inactive) | – | – | > 100 µM (inactive) | > 100 µM (inactive) | > 100 µM (inactive) | > 100 µM (inactive) | – | > 100 µM (inactive) | > 100 µM (inactive) | > 100 µM (inactive) | > 100 µM (inactive) | > 100 µM (inactive) | > 100 µM (inactive) | > 100 µM (inactive) |
| N#C/C(=C\c1cc(O)cc(O)c1)C(N)=O | > 100 µM (inactive) | > 100 µM (inactive) | > 100 µM (inactive) | > 100 µM (inactive) | > 100 | > 10 µM (inactive) | > 100 µM (inactive) | > 100 µM (inactive) | 21 µM (inactive) | > 100 µM (inactive) | > 100 µM (inactive) | > 100 µM (inactive) | > 100 µM (inactive) | > 100 µM (inactive) | > 100 µM (inactive) | – | 22 µM (inactive) | – | – | – |
